Tested on: Rhizopus oryzae JCM14625 strain (=NBRC 5384)
Test: Evaluation of ability to produce lactic acid-3 (surfactant concentration in the spore germination medium)
Type: cell-based
Details: no surfactant = 100
Description: (1) 200 mL of a PDB medium non-supplemented or supplemented with 0.01, 0.05, 0.25, 0.50, 1.0, 1.5, or 2.5% (w/v) (final concentration) of sorbitan monolaurate (Rheodol(R) SP-L10, manufactured by Kao Corp.) was applied to a 500-mL baffled Erlenmeyer flask (manufactured by Asahi Glass Co., Ltd.). The Rhizopus oryzae spore suspension prepared in Production Example 1 was inoculated thereto at a dose of 1×10^3 spores/mL of the medium and then cultured at 27° C. for 3 days with stirring at 110 rpm.
(2) The cultures were filtered through a filter support and a nylon net filter of 180 μm mesh size (manufactured by EMD Millipore) sterilized in advance to recover fungus bodies onto the filter. From 2.0 to 3.0 g of the recovered fungus bodies was inoculated to 100 mL of an inorganic culture medium (composition: 10% glucose, 0.1% ammonium sulfate, 0.06% potassium dihydrogen phosphate, 0.025% magnesium sulfate heptahydrate, 0.009% zinc sulfate heptahydrate, and 5.0% calcium carbonate; all the concentrations mean % (w/v)) applied to a 500-mL Erlenmeyer flask, and then cultured at 27° C. for approximately 40 hours with stirring at 220 rpm.
(3) Control conditions in the absence of the surfactant involved culturing spores with stirring by the same procedures as in (1) using a PDB medium non-supplemented with the surfactant and then inoculating from 4 to 8 mL of the PDB seed culture medium to 100 mL of the inorganic culture medium by the same procedures as in (2), followed by culture.
(4) Subsequently, the cultures thus obtained by culture in the inorganic culture medium were filtered through a filter support and a nylon net filter of 180 μm mesh size (manufactured by EMD Millipore) sterilized in advance to recover fungus bodies onto the filter. On this filter, the fungus bodies were further washed with from 50 to 200 mL of saline to obtain fungus bodies.
30 g of the prepared wet fungus bodies of the genus Rhizopus was inoculated to 100 mL of an inorganic culture medium for lactic acid production evaluation (composition: 12.5% glucose, 0.1% ammonium sulfate, 0.06% potassium dihydrogen phosphate, 0.025% magnesium sulfate heptahydrate, 0.009% zinc sulfate heptahydrate, and 6.25% calcium carbonate; all the concentrations mean % (w/v)) and then cultured at 33.5° C. with stirring at 170 rpm. The fungus body-free supernatant of the culture medium was recovered every 1 hour from 30 minutes after the fungus body inoculation. Glucose and lactic acid were quantified by the procedures described later in Reference Example 1. A relative value of the production rate of lactic acid was determined on the basis of the calculation method described in Reference Example 2.
The concentration of lactic acid (unit: g of lactic acid/L of medium) in the supernatant sample of each culture medium was measured according to Reference Example 1 and divided by a time (unit: hr) required for change in lactic acid concentration to calculate the production rate of lactic acid per unit time (unit: g of lactic acid/L/hr). In addition, a relative value to the production rate of lactic acid under control conditions in each Production Example was determined.

Substance: Sorbitan monolaurate
- Production rate of lactic acid (relative value) (0.01% w/v in germination medium): 119 relative value
- Production rate of lactic acid (relative value) (0.05% w/v in germination medium): 133 relative value
- Production rate of lactic acid (relative value) (0.25% w/v in germination medium): 116 relative value
- Production rate of lactic acid (relative value) (0.50% w/v in germination medium): 138 relative value
- Production rate of lactic acid (relative value) (1.00% w/v in germination medium): 140 relative value
- Production rate of lactic acid (relative value) (1.50% w/v in germination medium): 117 relative value
- Production rate of lactic acid (relative value) (2.50% w/v in germination medium): 98 relative value

Source: patent publication US20150125915A1, “Method for Producing Lactic Acid” (Kao Corporation, priority 2012, published 2015)
